Test results as given in patent US4174396A, “7,10-Dimethyl-5,9-imino-4,5,8,9-tetrahydro-cyclooct[b]thiophenes and a process for obtaining it” (Laboratories Made, S.A., priority 1978, dated 1979).

Key:
[1] = tested on: albino Swiss I.C.R. mice; test: Thermal analgesia, 55° C. hot-plate technique; type: in vivo; conditions: for Jumping time in sec. x ± S.E.M.: 50 mg/kg intraperitoneally, 30 minutes after dosing, 55° C. hot-plate, average ± standard error of the mean, control 64 ± 7.911
Protocol: The thermal analgesic effect has been studied in albino Swiss I.C.R. mice. The 55° C. hot-plate technique has been used. Batches of 10 mice were made.
The products under study were administered intraperitoneally. After 30 minutes the mice were placed on the hot-plate and note was made of the time it took them to jump, in seconds. Batches were made of control animals injected only with distilled water.

[2] = tested on: white Swiss I.C.R. mice; test: Chemical analgesia, acetic acid writhing technique; type: in vivo; conditions: for No. of writhes x ± S.E.M: 25 mg/kg intraperitoneally, 0.25 ml of 1% acetic acid after 30 minutes, writhes noted 20 minutes after acetic acid, control 130 ± 7.764
Protocol: The analgesic effect has been studied in white Swiss I.C.R. mice, with the acetic acid writhing technique. Batches of 10 mice were made.
The products under study were administered intraperitoneally, and after 30 minutes 0.25 ml of 1% acetic acid were injected intraperitoneally. A batch of control animals received only the acetic acid. The number of writhes in each mouse were noted 20 minutes after the acetic acid was administered.

[3] = tested on: albino Swiss I.C.R. mice; test: Acute toxicity (LD50, intraperitoneal, Litchfield-Wilcoxen); type: in vivo; conditions: both sexes, deaths noted 48 hours after treatment
Protocol: (§1) Acute toxicity studies have been made in albino Swiss I.C.R. mice, of both sexes, of a weight of 30±2 g, kept without food for 24 hours prior to the experiment. Temperature and relative humidity of the atmosphere were kept constant. The products were administered intraperitoneally, the number of deaths having been noted 48 hours after treatment. The lethal dose (LD50) was calculated by the Litchfield-Wilcoxen test.

[4] = as above; type: in vivo, albino Swiss I.C.R. mice; conditions: mouse, in vivo, ip, mice, both sexes, deaths noted 48 hours after treatment
Protocol: as §1

Row | SMILES | Jumping time in sec. x ± S.E.M. [1] | No. of writhes x ± S.E.M [2] | LD50 [3] | thermal analgesic activity (in words) ([1]; hot-plate, compared with dextropropoxyphene) | Signif. of differences, Dextropropox. ([2]; No. of writhes, 25 mg/kg, versus dextropropoxyphene) | chemical analgesic activity (in words) ([2]; acetic acid writhing, compared with dextropropoxyphene) | LD50 at 48 h [4]
1 | CCC(=O)O[C@](Cc1ccccc1)(c1ccccc1)[C@H](C)CN(C)C [Dextropropoxyphene, reference compound] | 164 ± 7.319 s | 68.4 ± 5.258 | 140 mg/kg | – | – | – | –
2 | CC1=CC2Cc3ccsc3C(C1)N2C (stereo not drawn) [I, 7,10-dimethyl-5,9-imino-4,5,8,9-tetrahydrocyclooct[b]thiophene] | 114.2 ± 11.168 s | 85.3 ± 13.915 | – | shows analgesic activity, but of less potency than that of dextropropoxyphene | N.S. | shows the same analgesic activity as dextropropoxyphene | 159 mg/kg
